Results from patent US9108921B2, “Therapeutic compounds and compositions” (AGIOS PHARMACEUTICALS, INC, priority 2014, dated 2015).

Key:
Assay type in all cases: biochemical
[1] = target: PKR WT (Homo sapiens, UniProt P30613); assay: PKR WT enzymatic AC50 assay; conditions: wild type PKR
How it was run: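 PK-LDH coupled assay, RT. Enzyme + cpd + PEP/NADH/LDH, 60 min pre-incubation, no ADP. ADP 0.22-1.65 mM to initiate; A340 kinetic read. Cpd 11 pts, 3-fold, 100 μM top.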

[2] = target: PKR R510Q (Homo sapiens, UniProt P30613, R510Q); assay: PKR Mutant Assay, AC50 against PKR R510Q; conditions: mutant PKR R510Q enzyme
Sequence of PKR R510Q (P30613 whole entry R510Q): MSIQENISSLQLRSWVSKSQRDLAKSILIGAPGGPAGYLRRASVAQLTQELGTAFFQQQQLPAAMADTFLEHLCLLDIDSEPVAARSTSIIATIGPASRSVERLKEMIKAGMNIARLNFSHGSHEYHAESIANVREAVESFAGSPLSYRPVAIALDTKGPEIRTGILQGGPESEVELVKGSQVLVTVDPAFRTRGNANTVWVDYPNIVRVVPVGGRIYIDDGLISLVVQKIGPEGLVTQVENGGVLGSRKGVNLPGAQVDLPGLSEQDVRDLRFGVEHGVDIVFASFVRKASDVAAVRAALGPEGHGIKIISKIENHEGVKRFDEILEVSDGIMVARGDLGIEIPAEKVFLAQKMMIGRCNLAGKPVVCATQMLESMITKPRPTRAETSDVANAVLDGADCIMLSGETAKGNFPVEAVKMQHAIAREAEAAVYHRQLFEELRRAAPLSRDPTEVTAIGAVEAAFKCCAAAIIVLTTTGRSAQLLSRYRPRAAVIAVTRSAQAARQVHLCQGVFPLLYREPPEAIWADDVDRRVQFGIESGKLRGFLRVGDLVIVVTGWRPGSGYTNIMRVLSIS
How it was run: (§1)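 LDH-coupled NADH depletion read as A340 change at room temperature after ADP (0.22-1.65 mM) start. Compounds, tested from 100 μM final in 3-fold steps over 11 points with 1% DMSO, sat 60 min with enzyme (80-400 ng/well), PEP 0.1-0.5 mM and NADH 180 uM in Tris pH 7.5/KCl/MgCl2/DTT/BSA buffer.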

[3] = target: PKR R532W (Homo sapiens, UniProt P30613, R532W); assay: PKR Mutant Assay, AC50 against PKR R532W; conditions: mutant PKR R532W enzyme
Sequence of PKR R532W (P30613 whole entry R532W): as the sequence (P30613 whole entry R510Q) above, with Q510R, R532W counted along it
How it was run: as §1

Sequence of PKR WT (P30613 whole entry): as the sequence (P30613 whole entry R510Q) above, with Q510R counted along it

AC50 [1]	AC50 [2]	AC50 [3]	SMILES
1.01 to 10 µM	> 10 µM	1.01 to 10 µM	O=C(c1ccc(NS(=O)(=O)c2cccc(OC(F)(F)F)c2)cc1)N1CCC(O)(Cc2ccccc2)CC1 [Compound 307]
1.01 to 10 µM	> 10 µM	1.01 to 10 µM	O=C(c1ccc(NS(=O)(=O)c2cccc3c2OC(F)(F)O3)cc1)N1CCC(O)(c2ccccc2Cl)CC1 [Compound 308]
1.01 to 10 µM	> 10 µM	1.01 to 10 µM	CC(C)CC1(O)CCN(C(=O)c2ccc(NS(=O)(=O)c3c(F)ccc4ncsc34)cc2)CC1 [Compound 309]
1.01 to 10 µM	> 10 µM	1.01 to 10 µM	O=C(c1ccc(N[S+]([O-])c2cccc3cccnc23)cc1)N1CCC(O)(c2ccccc2Cl)CC1 (stereo not drawn) [Compound 311]
1.01 to 10 µM	> 10 µM	1.01 to 10 µM	CC(C)CC1(O)CCN(C(=O)c2ccc(NS(=O)(=O)c3cccn4ccnc34)cc2)CC1 [Compound 312]
1.01 to 10 µM	> 10 µM	> 10 µM	O=C(c1ccc(NS(=O)(=O)c2cccc3ccnnc23)cc1)N1CCC(O)(c2ccccc2Cl)CC1 [Compound 313]
1.01 to 10 µM	> 10 µM	> 10 µM	CC(C)CC1(O)CCN(C(=O)c2ccc(NS(=O)(=O)c3ccnc4scnc34)cc2)CC1 [Compound 314]
> 10 µM	> 10 µM	> 10 µM	O=C(c1ccc(NS(=O)(=O)c2c[nH]c3cccnc23)cc1)N1CCC(O)(c2ccccc2Cl)CC1 [Compound 316]
> 10 µM	> 10 µM	> 10 µM	O=C(c1ccc(NS(=O)(=O)n2ccc3cccnc32)cc1)N1CCC(O)(c2ccccc2Cl)CC1 [Compound 318]
> 10 µM	> 10 µM	> 10 µM	O=C(c1ccc(NS(=O)(=O)c2cccc3cccnc23)cc1)N1CCC(C(=O)O)(c2ccccc2)CC1 [Compound 320]
> 10 µM	> 10 µM	> 10 µM	O=C(c1ccc(NS(=O)(=O)Cc2ccccn2)cc1)N1CCC(O)(c2ccccc2Cl)CC1 [Compound 322]
> 10 µM	> 10 µM	> 10 µM	CC(C)CC1(O)CCN(C(=O)c2ccc(NS(=O)(=O)Cc3ccccn3)cc2)CC1 [Compound 324]
0.101 to 1 µM	1.01 to 10 µM	0.101 to 1 µM	O=C(c1ccc(NS(=O)(=O)c2ccc(F)c3scnc23)cc1)N1CCC(O)(c2ccccc2Cl)CC1 [Compound 368]
0.101 to 1 µM	0.101 to 1 µM	0.101 to 1 µM	CC(C)CC1(O)CCN(C(=O)c2ccc(NS(=O)(=O)c3ccc(F)c4scnc34)cc2)CC1 [Compound 372]
0.101 to 1 µM	1.01 to 10 µM	0.101 to 1 µM	CC(C)CC1(O)CCN(C(=O)c2ccc(NS(=O)(=O)c3cccc4csnc34)cc2)CC1 [Compound 376]
0.101 to 1 µM	1.01 to 10 µM	0.101 to 1 µM	O=C(c1ccc(NS(=O)(=O)c2ccc(F)c3scnc23)cc1)N1CCC(O)(c2ccccc2Cl)CC1 [Compound 378, N-(4-(4-(2-chlorophenyl)-4-hydroxypiperidine-1-carbonyl)phenyl)-7-fluorobenzo[d]thiazole-4-sulfonamide]
< 0.1 µM	0.101 to 1 µM	0.101 to 1 µM	O=C(c1ccc(NS(=O)(=O)c2cccc3ocnc23)cc1)N1CCC(O)(c2ccccc2Cl)CC1 [Compound 381, N-(4-(4-(2-chlorophenyl)-4-hydroxypiperidine-1-carbonyl)phenyl)benzo[d]oxazole-4-sulfonamide]
0.101 to 1 µM	0.101 to 1 µM	0.101 to 1 µM	Cc1nc2c(S(=O)(=O)Nc3ccc(C(=O)N4CCC(O)(CC(C)C)CC4)cc3)cccc2o1 [Compound 384, N-(4-(4-hydroxy-4-isobutylpiperidine-1-carbonyl)phenyl)-2-methylbenzo[d]oxazole-4-sulfonamide]
